Common to all, as to assay type: in vivo, corn
Assay [1] deals with homozygous susceptible plants (rr). Kind of assay: Foliar glyphosate spray of known susceptible check plants, plant mortality (Example 1). The source says: (§1) Progeny of a cross between a homozygous resistant plant (RR) and a homozygous susceptible plant (rr) were planted at the Garst Research Centre near Slater, Iowa, and at the Hawaii Research Centre near Kunia, Hi. It was expected that none of the progeny would segregate for resistance to foliar applications of glyphosate. To test this, the progeny growing at the IA test site were sprayed with glyphosate at a rate of 64 oz per acre during the V5 and V6 stages of growth (26 days after planting). At the same time and rate, several plants in a row of known susceptible plants were sprayed. All of the sprayed plots were examined for plant mortality 7 days after spraying. As expected, all of the susceptible check plants were dead and while all of the putative heterozygous resistant plants were alive (Table 1).

Assay [2] relates to heterozygous resistant plants (Rr, Glyphosate-resistance event GA21). Briefly: Foliar glyphosate spray of putative heterozygous resistant plants, plant mortality (Example 1).
Excerpt: as §1
(§2) A second application of 32oz per acre was applied to the heterozyous resistant plants at the V7 to V8 stage of growth (9 days later). These plants comprised the “Sprayed” class in subsequent experiments. In HI, none of the plants were sprayed with glyphosate and these plants comprised the “Unsprayed” class in subsequent experiments. At both locations, crosses were made between the heterozygous resistant plants and homozygous susceptible plants.

Assay [3] relates to progeny of crosses between heterozygous resistant plants and homozygous susceptible plants. Briefly: Evaluation of progeny from Sprayed and Unsprayed classes: counts of resistant and susceptible plants after glyphosate spray (Example 2). The note with it: progeny sprayed 64 oz per acre V3-V4, counted ten days post-application.
Excerpt: as §2
Progeny of the crosses from each class were planted at the HI location. All progeny plants from each class were sprayed with glyphosate at a rate of 64 oz per acre during the V3 to V4 stages of growth. Ten days post-application, counts of resistant and susceptible plants were made for each class. The expected segregation, 1:1 resistant to susceptible, was compared to the observed segregation for each class (Table 2).

The mark [4] stands for this setting: progeny of Unsprayed class (parents not sprayed), 182 plants.

Consider `O=C(O)CNCP(=O)(O)O` [glyphosate], for which the “Observed Segregation” value is on record as “All Susceptible” in assay [1] (class Homozygous Susceptible, 64 oz per acre at the same time and rate, examined 7 days after spraying); “All Resistant” in assay [2] (class Heterozygous Resistant, 64 oz per acre at V5 and V6 stages (26 days after planting), examined 7 days after spraying). In addition, the plant mortality entry in assay [1] (susceptible check plants, 64 oz per acre, 7 days after spraying) is “dead”; in assay [2] (putative heterozygous resistant plants, 64 oz per acre, V5 and V6, 7 days after spraying) it was “alive”. For the same compound, the “Observed Segregation: Resistant plants” value in assay [3] (progeny of Sprayed class (parents 64 oz per acre V5-V6 plus 32 oz per acre V7-V8), 504 plants) is recorded as 504; in assay [3] (setting [4]) it was 100. Besides, in assay [3] (setting [4]), the “Observed Segregation: Susceptible plants” value was 82.
